As a reminder, the solubility is the concentration that dissolves in the medium under given conditions. The low end stands for little dissolved substance, the high end for much dissolved substance.

Data set [1] in a line: Drug interaction trials: effect of dolutegravir on pharmacokinetics of coadministered drugs.
From the text: (§1) These recommendations are based on either drug interaction trials of individual components or predicted interactions due to the expected magnitude of interaction and potential for serious adverse events or loss of efficacy.
A short description of data set [2]: Drug interaction trials: effect of coadministered drugs on pharmacokinetics of dolutegravir. It counts as in vivo, human.
From the text: as §1
The nature of data set [3]: Established and other potentially significant drug interactions with JULUCA (effect on concentration). It counts as in vivo, human. The settings on record: based on drug interaction trials or predicted interactions.
From the text: as §1
For data set [4] the following is noted: human, in vivo.
The nature of data set [5]: Drug interaction trials: effect of rilpivirine on pharmacokinetics of coadministered drugs. The following applies: No Effect = 1.00.
The nature of data set [6]: Solubilities of non-micronized dolutegravir sodium in various solvents at 25° C. Format: physicochemical.
The nature of data set [7]: Pre-dose concentrations of DTG and RPV at Weeks 4, 24 and 48 or withdrawal in participants switching to DTG + RPV. Format: in vivo, human.
Method: (§2) First set of participants (DTG 50 mg) received DIG 50 mg+RPV 25 mg together once daily, with a meal, in an open-label fashion up to Week 52 during early switch phase. Second set of participants (RPV 25 mg) also received DTG 50 mg+RPV 25 mg together once daily, with a meal, in an open-label fashion up to Week 52 during early switch phase.
(§3) First set of participants (DTG 50 mg) received DTG 50 mg+RPV 25 mg together once daily, with a meal, in an open-label fashion up to Week 52 during early switch phase. Second set of participants (RPV 25 mg) also received DTG 50 mg+RPV 25 mg together once daily, with a meal, in an open-label fashion up to Week 52 during early switch phase.
Data set [8] in a line: Pre-dose concentrations of DTG and RPV at Weeks 2, 4 and 8 in the first 20 participants who switch from EFV or NVP to DTG + RPV. Format: in vivo, human.
Method: as §2, §3
The nature of data set [9]: Solubilities of rilpivirine hydrochloride in various aqueous media. It counts as physicochemical.
[10] abbreviates: coadministered drug 2 h after dolutegravir 50 mg single dose.
Setting [11] is: simultaneous administration (fasted), dolutegravir 50 mg single dose.
[12] abbreviates: simultaneous administration (fed), dolutegravir 50 mg single dose.
Setting [13] is: metformin 500 mg twice daily, dolutegravir 50 mg once daily.
The mark [14] stands for this setting: metformin 500 mg twice daily, dolutegravir 50 mg twice daily.

As to `C#C[C@]1(O)CC[C@H]2[C@@H]3CCC4=CC(=NO)CC[C@@H]4[C@H]3CC[C@@]21CC` (mixture of isomers) [Norelgestromin], in [1] (No Effect = 1.00), the “Cmax of coadministered drug, geometric mean ratio with/without dolutegravir” value is given as 0.89 and the “Cτ or C24 of coadministered drug, geometric mean ratio with/without dolutegravir” value came out at 0.93.

As to `O=C([O-])[O-].[Ca+2]` [Calcium carbonate], in data set [2] (setting [10]), the “Dolutegravir AUC, geometric mean ratio with/without coadministered drug” value amounted to 0.94; the “Dolutegravir Cmax, geometric mean ratio with/without coadministered drug” value is reported as 1.00; the “Dolutegravir Cτ or C24, geometric mean ratio with/without coadministered drug” value worked out at 0.90. Further, in data set [2] (setting [11]), the “Dolutegravir AUC, geometric mean ratio with/without coadministered drug” value is reported as 0.61; the “Dolutegravir Cmax, geometric mean ratio with/without coadministered drug” value is 0.63; the “Dolutegravir Cτ or C24, geometric mean ratio with/without coadministered drug” value stood at 0.61. Also, in data set [2] (setting [12]), the “Dolutegravir AUC, geometric mean ratio with/without coadministered drug” value amounted to 1.09; the “Dolutegravir Cmax, geometric mean ratio with/without coadministered drug” value was determined as 1.07; the “Dolutegravir Cτ or C24, geometric mean ratio with/without coadministered drug” value was 1.08.

On to `COC(=O)N[C@H](C(=O)N1CCC[C@H]1c1nc(-c2ccc(-c3ccc(-c4c[nH]c([C@@H]5CCCN5C(=O)[C@@H](NC(=O)OC)C(C)C)n4)cc3)cc2)c[nH]1)C(C)C` [Daclatasvir], for which, in [1] (No Effect = 1.00), the “Cmax of coadministered drug, geometric mean ratio with/without dolutegravir” value amounted to 1.03 and the “Cτ or C24 of coadministered drug, geometric mean ratio with/without dolutegravir” value came to 1.06.

As to `O=C([O-])/C=C/C(=O)[O-].[Fe+2]` [Ferrous fumarate], in [2] (setting [10]), the “Dolutegravir AUC, geometric mean ratio with/without coadministered drug” value worked out at 0.95; the “Dolutegravir Cmax, geometric mean ratio with/without coadministered drug” value came out at 0.99; the “Dolutegravir Cτ or C24, geometric mean ratio with/without coadministered drug” value amounted to 0.92. Further, in data set [2] (setting [11]), the “Dolutegravir AUC, geometric mean ratio with/without coadministered drug” value was found to be 0.46; the “Dolutegravir Cmax, geometric mean ratio with/without coadministered drug” value amounted to 0.43; the “Dolutegravir Cτ or C24, geometric mean ratio with/without coadministered drug” value turned out to be 0.44. Also, in data set [2] (setting [12]), the “Dolutegravir AUC, geometric mean ratio with/without coadministered drug” value is 0.98; the “Dolutegravir Cmax, geometric mean ratio with/without coadministered drug” value stood at 1.03; the “Dolutegravir Cτ or C24, geometric mean ratio with/without coadministered drug” value came to 1.00.

`CN(C)C(=N)N=C(N)N` [Metformin]: in data set [3], the “Effect on Concentration of the concomitant drug” value is recorded as “↑Metformin”. Further, in [4], the “AUC of coadministered drug, geometric mean ratio with/without EDURANT” value is 0.97 and the “Cmax of coadministered drug, geometric mean ratio with/without EDURANT” value worked out at 1.02. In [1] (setting [13]), the “AUC of coadministered drug, geometric mean ratio with/without dolutegravir” value worked out at 1.79 and the “Cmax of coadministered drug, geometric mean ratio with/without dolutegravir” value is 1.66. For the same compound, in [1] (setting [14]), the “AUC of coadministered drug, geometric mean ratio with/without dolutegravir” value is reported as 2.45 and the “Cmax of coadministered drug, geometric mean ratio with/without dolutegravir” value is recorded as 2.11.

As to `C#C[C@]1(O)CC[C@H]2[C@@H]3CCC4=CC(=O)CC[C@@H]4[C@H]3CC[C@@]21C` [Norethindrone], in data set [4], the “AUC of coadministered drug, geometric mean ratio with/without EDURANT” value is given as 0.89 and the “Cmax of coadministered drug, geometric mean ratio with/without EDURANT” value was 0.94. Further, the “Cmin of coadministered drug, geometric mean ratio with/without EDURANT” value in data set [5] was determined as 0.99.

Consider `C[C@@H]1CCO[C@H]2Cn3cc(C(=O)NCc4ccc(F)cc4F)c(=O)c([O-])c3C(=O)N12.[Na+]` [dolutegravir sodium, sodium (4R,12aS)-9-{[(2,4-difluorophenyl)methyl]carbamoyl}-4-methyl-6,8-dioxo-3,4,6,8,12,12a-hexahydro-2H-pyrido[1′,2′:4,5]pyrazino[2,1-b][1,3]oxazin-7-olate], for which the “Descriptor (solubility)” value in [6] (FaSSIF, pH 6.5, 25° C.) was “Very slightly soluble”; in [6] (FaSSIF, pH 6.5, 25° C., listed as Non-micronized dolutegravir sodium), “very slightly soluble”; in data set [6] (FeSSIF, pH 5.0, 25° C.) it was “Very slightly soluble”; in [6] (FeSSIF, pH 5.0, 25° C., listed as Non-micronized dolutegravir sodium), “very slightly soluble”; in data set [6] (SGF, pH 1.2, 25° C.), “Practically insoluble”; in data set [6] (SGF, pH 1.2, 25° C., listed as Non-micronized dolutegravir sodium) it was “practically insoluble”. Moreover, the “Descriptor (solubility)” value in data set [6] (Water, solution pH 10.1, 25° C.) is listed as “Slightly soluble”; in [6] (Water, solution pH 10.1, 25° C., listed as Dolutegravir sodium), “slightly soluble”. This compound also came in with a solubility at 8 h in data set [6] (simulated gastric fluid, thermodynamic from solid, SGF, pH 1.2, 25° C., 8 hours) of 21 µg/mL. Besides, the solubility at 4 h in [6] (thermodynamic from solid, FaSSIF, pH 6.5, 25° C., 4 hours) stood at 239 µg/mL; in data set [6] (thermodynamic from solid, FeSSIF, pH 5.0, 25° C., 4 hours), 170 µg/mL; in [6] (thermodynamic from solid, Water, solution pH 10.1, 25° C., equilibrium after 4 hours) it was 3180 µg/mL. The “Pre-dose concentration, Mean ± Standard Deviation” value in data set [7] (Example 3 (Table 10), Week 4) came out at 1581.06 ± 1146.860 µg/L; in data set [7] (Example 3 (Table 10), Week 24) it was 1835.68 ± 1120.539 µg/L; in data set [7] (Example 3 (Table 10), Week 48), 1915.11 ± 1304.238 µg/L; in data set [7] (Example 5 (Table 13), Week 4), 1578.88 ± 1170.967 µg/L; in data set [7] (Example 5 (Table 13), Week 24), 1447.23 ± 917.677 µg/L; in data set [7] (Example 5 (Table 13), Week 48) it was 1384.36 ± 889.829 µg/L. In addition, the “Pre-dose concentration, Mean ± Standard Deviation” value in data set [8] (Example 3 (Table 10), Week 2) amounted to 821.25 ± 574.607 µg/L; in [8] (Example 3 (Table 10), Week 4) it was 994.00 ± 581.201 µg/L; in data set [8] (Example 3 (Table 10), Week 8), 1561.34 ± 1096.381 µg/L; in data set [8] (Example 5 (Table 13), Week 2), 834.58 ± 639.622 µg/L; in [8] (Example 5 (Table 13), Week 4), 1218.23 ± 842.703 µg/L; in data set [8] (Example 5 (Table 13), Week 8), 1472.50 ± 818.774 µg/L.

Take `Cc1cc(/C=C/C#N)cc(C)c1Nc1ccnc(Nc2ccc(C#N)cc2)n1.Cl` [rilpivirine hydrochloride, 4-[[4-[[4-[(E)-2-cyanoethenyl]-2,6-dimethylphenyl]amino]-2-pyrimidinyl]amino]benzonitrile hydrochloride]: the “Descriptor (solubility)” value in data set [9] (0.01N HCl, pH 2.0) is “Practically insoluble (Practically insoluble or Insoluble: Parts of solvent required for 1 part of solute: greater than or equal to 10,000)”; in data set [9] (0.1N HCl, pH 1.1), “Practically insoluble (Practically insoluble or Insoluble: Parts of solvent required for 1 part of solute: greater than or equal to 10,000)”; in data set [9] (0.1N NaOH, pH 12.9), “Practically insoluble (Practically insoluble or Insoluble: Parts of solvent required for 1 part of solute: greater than or equal to 10,000)”; in data set [9] (Borate-KCl, pH 8.9) it was “Practically insoluble (Practically insoluble or Insoluble: Parts of solvent required for 1 part of solute: greater than or equal to 10,000)”; in [9] (Citrate-HCl, pH 2.0), “Practically insoluble (Practically insoluble or Insoluble: Parts of solvent required for 1 part of solute: greater than or equal to 10,000)”; in data set [9] (Citrate-NaOH, pH 5.0), “Practically insoluble (Practically insoluble or Insoluble: Parts of solvent required for 1 part of solute: greater than or equal to 10,000)”. Besides, the “Descriptor (solubility)” value in data set [9] (Phosphate Buffer, pH 6.9) was “Practically insoluble (Practically insoluble or Insoluble: Parts of solvent required for 1 part of solute: greater than or equal to 10,000)”; in data set [9] (Phosphate-NaOH, pH 11.9) it was “Practically insoluble (Practically insoluble or Insoluble: Parts of solvent required for 1 part of solute: greater than or equal to 10,000)”; in data set [9] (Water, solution pH 2.2), “Practically insoluble (Practically insoluble or Insoluble: Parts of solvent required for 1 part of solute: greater than or equal to 10,000)”; in data set [9] (aqueous media (Table 16)), “practically insoluble”. The Solubility is listed as 0.003 g/100 mL in data set [9] (0.01N HCl, pH 2.0, 20° C.); below 0.001 g/100 mL in data set [9] (0.1N HCl, pH 1.1, 20° C.); below 0.001 g/100 mL in data set [9] (0.1N NaOH, pH 12.9, 20° C.); below 0.001 g/100 mL in [9] (Borate-KCl, pH 8.9, 20° C.); below 0.001 g/100 mL in data set [9] (Citrate-HCl, pH 2.0, 20° C.); below 0.001 g/100 mL in [9] (Citrate-NaOH, pH 5.0, 20° C.). For the same compound, the Solubility in data set [9] (Phosphate Buffer, pH 6.9, 20° C.) is reported as below 0.001 g/100 mL; in data set [9] (Phosphate-NaOH, pH 11.9, 20° C.), below 0.001 g/100 mL; in data set [9] (Water, solution pH 2.2, 20° C.) it was 0.001 g/100 mL. The “Pre-dose concentration, Mean ± Standard Deviation” value came out at 92.046 ± 138.2880 µg/L in [7] (Example 3 (Table 10), Week 4); 87.875 ± 39.1412 µg/L in data set [7] (Example 3 (Table 10), Week 24); 95.405 ± 48.2978 µg/L in [7] (Example 3 (Table 10), Week 48); 79.504 ± 38.2305 µg/L in data set [7] (Example 5 (Table 13), Week 4); 90.207 ± 46.3022 µg/L in [7] (Example 5 (Table 13), Week 24); 91.799 ± 47.1371 µg/L in data set [7] (Example 5 (Table 13), Week 48). For the same compound, the “Pre-dose concentration, Mean ± Standard Deviation” value came to 65.360 ± 31.2965 µg/L in data set [8] (Example 3 (Table 10), Week 2); 67.374 ± 27.5663 µg/L in data set [8] (Example 3 (Table 10), Week 4); 77.416 ± 37.7129 µg/L in data set [8] (Example 3 (Table 10), Week 8); 57.342 ± 29.5436 µg/L in [8] (Example 5 (Table 13), Week 2); 78.338 ± 31.4825 µg/L in data set [8] (Example 5 (Table 13), Week 4); 79.652 ± 40.7546 µg/L in [8] (Example 5 (Table 13), Week 8).

The record behind these values is US12011506B2, “Combination and uses and treatments thereof” (priority 2017, dated 2024).
